Reference: ChEMBL document CHEMBL1201862, “PubChem BioAssay data set” (2004)
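A five-concentration, 48-hour dose response in 96-well plates underlies each endpoint, interpolated linearly between surrounding concentrations. GI50 is the concentration that inhibits growth by half.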 Active and inactive are the calls of the source. Rule as the data show it: active = GI50 up to about 1.1 µM and inactive = higher.

Legend:
Experiment in all cases: DTP human tumour cell line panel, 48 h
COLO 205 = tested on: COLO 205
DU-145 = tested on: DU-145
LOX IMVI = tested on: LOX IMVI
MCF7 = tested on: MCF7
Malme-3M = tested on: Malme-3M
SK-MEL-2 = tested on: SK-MEL-2
HOP-92 = tested on: HOP-92
OVCAR-3 = tested on: OVCAR-3
KM12 = tested on: KM12
BT-549 = tested on: BT-549
EKVX = tested on: EKVX
OVCAR-8 = tested on: OVCAR-8
K562 = tested on: K562
SK-OV-3 = tested on: SK-OV-3
A498 = tested on: A498
HOP-62 = tested on: HOP-62
NCI-H23 = tested on: NCI-H23
HCC 2998 = tested on: HCC 2998
PC-3 = tested on: PC-3
OVCAR-4 = tested on: OVCAR-4

Measured: GI50

NC(=O)Cc1ncn(-c2ccccc2)n1
inactive: COLO 205 > 100 µM | DU-145 > 100 µM | LOX IMVI > 100 µM | MCF7 > 100 µM | Malme-3M > 100 µM | SK-MEL-2 > 100 µM | HOP-92 > 100 µM | OVCAR-3 > 100 µM | KM12 > 100 µM | BT-549 > 100 µM | EKVX > 100 µM | OVCAR-8 > 100 µM | K562 > 100 µM | SK-OV-3 > 100 µM | A498 > 100 µM | HOP-62 > 100 µM | NCI-H23 > 100 µM

Cc1ccc(N(C(=O)Nc2ccccc2)C2=NCC(C)S2)cc1C (stereo not given)
inactive: HCC 2998 > 10 µM | PC-3 24.4 µM | COLO 205 19.4 µM | DU-145 31.4 µM | LOX IMVI 16.6 µM | MCF7 12.8 µM | Malme-3M 20.3 µM | SK-MEL-2 17.4 µM | HOP-92 22.5 µM | OVCAR-3 17.3 µM | KM12 17.8 µM | OVCAR-4 28.9 µM | EKVX 17.9 µM | OVCAR-8 29.2 µM | K562 42.7 µM | SK-OV-3 39.6 µM | A498 14 µM | HOP-62 53.3 µM | NCI-H23 15.7 µM

C(=N\CCCN1CCN(CCC/N=C/c2cccc3ccccc23)CC1)/c1cccc2ccccc12
inactive: HCC 2998 > 100 µM | PC-3 > 100 µM | COLO 205 > 100 µM | LOX IMVI 42.5 µM | Malme-3M > 100 µM | SK-MEL-2 > 100 µM | OVCAR-3 > 100 µM | KM12 > 100 µM | OVCAR-4 > 100 µM | BT-549 22.8 µM | EKVX 71.8 µM | OVCAR-8 > 100 µM | K562 26.4 µM | SK-OV-3 > 100 µM | HOP-62 > 100 µM | NCI-H23 90.8 µM

CN(C(=O)CC(=O)CP(=O)(c1ccccc1)c1ccccc1)c1ccccc1
inactive: HCC 2998 > 100 µM | PC-3 > 100 µM | COLO 205 > 100 µM | DU-145 > 100 µM | MCF7 > 100 µM | OVCAR-3 > 100 µM | KM12 > 100 µM | OVCAR-4 > 100 µM | BT-549 > 100 µM | EKVX > 100 µM | OVCAR-8 > 100 µM | K562 > 100 µM | SK-OV-3 > 100 µM | HOP-62 > 100 µM | NCI-H23 > 100 µM

N=C(N)n1nc2c(c1O)CCCC2
inactive: HCC 2998 > 100 µM | PC-3 > 100 µM | COLO 205 > 100 µM | DU-145 > 100 µM | LOX IMVI > 100 µM | MCF7 > 100 µM | Malme-3M > 100 µM | SK-MEL-2 > 100 µM | OVCAR-3 > 100 µM | KM12 > 100 µM | OVCAR-4 > 100 µM | EKVX > 100 µM | OVCAR-8 > 100 µM | K562 > 100 µM | SK-OV-3 > 100 µM | A498 8.22 µM | HOP-62 > 100 µM | NCI-H23 > 100 µM

O=c1c(Sc2c(SCSc3cnc4ccccc4c3Sc3c[nH]c4ccccc4c3=O)cnc3ccccc23)c[nH]c2ccccc12
inactive: HCC 2998 > 100 µM | PC-3 > 10 µM | COLO 205 > 100 µM | DU-145 > 100 µM | LOX IMVI > 100 µM | SK-MEL-2 > 10 µM | HOP-92 34 µM | OVCAR-3 > 100 µM | KM12 > 100 µM | OVCAR-4 96.6 µM | BT-549 > 100 µM | EKVX > 100 µM | OVCAR-8 > 100 µM | HOP-62 94.2 µM | NCI-H23 > 100 µM

c1ccc(C2=C(c3ccccc3)P(c3ccccc3)C2)cc1 (stereo not given)
inactive: HCC 2998 > 100 µM | PC-3 48.1 µM | COLO 205 > 100 µM | DU-145 > 100 µM | MCF7 > 100 µM | Malme-3M 67.1 µM | SK-MEL-2 > 100 µM | HOP-92 > 100 µM | OVCAR-3 78.7 µM | KM12 49.7 µM | OVCAR-4 > 100 µM | OVCAR-8 89.7 µM | SK-OV-3 > 100 µM | A498 > 100 µM | HOP-62 > 100 µM

CC(=O)NCCCCNCCCNC(C)=O
inactive: HCC 2998 > 100 µM | COLO 205 > 100 µM | DU-145 > 100 µM | LOX IMVI > 100 µM | MCF7 > 100 µM | Malme-3M > 100 µM | HOP-92 > 100 µM | KM12 > 100 µM | OVCAR-4 > 100 µM | BT-549 > 100 µM | EKVX > 100 µM | OVCAR-8 > 100 µM | K562 > 100 µM | SK-OV-3 > 100 µM | A498 > 100 µM | NCI-H23 > 100 µM

CCCCCCNCCc1c[nH]cn1
inactive: HCC 2998 > 100 µM | PC-3 > 100 µM | COLO 205 > 100 µM | DU-145 > 100 µM | LOX IMVI > 100 µM | MCF7 > 100 µM | Malme-3M > 100 µM | SK-MEL-2 > 100 µM | HOP-92 > 100 µM | OVCAR-3 > 100 µM | KM12 > 100 µM | OVCAR-4 > 100 µM | EKVX > 100 µM | OVCAR-8 > 100 µM | K562 > 100 µM | SK-OV-3 > 100 µM | A498 > 100 µM | HOP-62 > 100 µM | NCI-H23 > 100 µM
